The text below walks through data of ChEMBL document CHEMBL3097995, “NAD-based inhibitors with anticancer potential” (Bioorg Med Chem Lett, 2014).

A value given as a limit tells only on which side of the number the result lay.

One series has as its system HT-29. The series can be described thus: Antiproliferative activity against human HT-29 cells. The series is classed as functional, cell-based.
Series [1] concerns the target Inosine-5'-monophosphate dehydrogenase 2 (Homo sapiens, UniProt P12268). As to the kind of experiment: Inhibition of IMPDH2 (unknown origin).
Series [2] deals with Inosine-5'-monophosphate dehydrogenase 1 (Homo sapiens, UniProt P20839). The series can be described thus: Inhibition of IMPDH1 (unknown origin).
Chain of Inosine-5'-monophosphate dehydrogenase 1 (P20839 whole entry): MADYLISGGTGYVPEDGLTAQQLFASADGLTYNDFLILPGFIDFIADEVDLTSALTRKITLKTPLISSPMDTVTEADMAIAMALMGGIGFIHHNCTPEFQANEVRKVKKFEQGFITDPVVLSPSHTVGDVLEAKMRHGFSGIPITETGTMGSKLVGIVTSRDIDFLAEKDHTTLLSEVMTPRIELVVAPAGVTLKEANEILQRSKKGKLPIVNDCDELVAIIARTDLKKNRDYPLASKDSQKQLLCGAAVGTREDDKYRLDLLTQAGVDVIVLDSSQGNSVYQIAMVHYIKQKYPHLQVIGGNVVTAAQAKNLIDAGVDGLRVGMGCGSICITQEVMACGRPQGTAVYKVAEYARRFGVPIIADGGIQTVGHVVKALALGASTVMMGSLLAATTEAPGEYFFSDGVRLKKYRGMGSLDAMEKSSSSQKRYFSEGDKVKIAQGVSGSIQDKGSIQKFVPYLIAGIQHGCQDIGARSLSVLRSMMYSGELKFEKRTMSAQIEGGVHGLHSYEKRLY
Another series deals with HeLa. As to the kind of experiment: Antiproliferative activity against human HeLa cells. The series is classed as functional, cell-based.
Another series has as its system K562. As to the kind of experiment: Antiproliferative activity against human K562 cells. It is filed as functional, cell-based.
Series [3] can be described thus: Drug degradation in human plasma after 24 hrs. The settings on record: read-out: Drug degradation. It is filed as ADME, cell-free.
Another series has as its system HL-60. As to the kind of experiment: Antiproliferative activity against human HL60 cells. The series is classed as functional, cell-based.
The subject of another series is PC-3. The series can be described thus: Antiproliferative activity against human PC3 cells. The series is classed as functional, cell-based.
For the next series, the system named is DU-145. The series can be described thus: Antiproliferative activity against human DU145 cells. It is filed as functional, cell-based.
Another series deals with Plasma. As to the kind of experiment: Metabolic stability in human plasma. The series is classed as ADME, cell-free.
Series [4] is filed under the species Homo sapiens. As to the kind of experiment: Selectivity ratio of Ki for IMPDH1 (unknown origin) to Ki for IMPDH2 (unknown origin).
Series [5] can be described thus: Binding affinity to human IMPDH.
The species named for series [6] is Homo sapiens. As to the kind of experiment: Selectivity ratio of Ki for IMPDH2 (unknown origin) to Ki for IMPDH1 (unknown origin).

One may read the IC50 as the concentration at which inhibition is half-maximal. A lower IC50 goes with inhibition by little substance. For orientation: Ki means the equilibrium dissociation constant of an inhibitor or competing ligand from its target. Low values mean tighter binding, high ones weaker binding. Take `COc1c(C)c2c(c(O)c1CCOP(=O)(O)CP(=O)(O)OC[C@H]1O[C@@H](n3c(Br)nc4c(N)ncnc43)[C@H](O)[C@@H]1O)C(=O)OC2`: the values for the half-inhibitory concentration (IC50) in the series with HT-29, in the series with HeLa and in the series on K562 were more than 100000 nM, more than 100000 nM and 48000 nM, respectively. Besides, the results for the Ki in series [1] and in [2] were 186 nM and 39 nM, respectively.

As for `COc1c(C)c2c(c(O)c1C/C=C(\C)CCC(=O)OC[C@H]1O[C@@H](n3cnc4c(N)ncnc43)[C@H](O)[C@@H]1O)C(=O)OC2`, the metabolised at 24 h in series [3] worked out at 20%. The IC50 stood at 9300 nM in the series with HL-60, 20000 nM in the series with PC-3, 5800 nM with DU-145 and 500 nM in the series with K562. The figures for the Ki in series [1] and in series [2] were 102 nM and 163 nM, respectively.

On to `COc1c(C)c2c(c(O)c1CCOP(=O)(O)CP(=O)(O)OC[C@H]1O[C@@H](n3cnc4c(N)nc(-c5ccco5)nc43)[C@H](O)[C@@H]1O)C(=O)OC2`, for which the figures for the IC50 in the series on HT-29, in the series on HeLa and in the series with K562 were 9800 nM, 3000 nM and 800 nM, respectively. The Ki in series [1] is 37 nM; in series [2], 63 nM.

As for `COc1c(C)c2c(c(O)c1C/C=C(\C)CCC(=O)OCCN1CCOCC1)C(=O)OC2` [MYCOPHENOLATE MOFETIL], in the series on Plasma, the Stability entry is given as “Unstable”.

Turning to `COc1c(C)c2c(c(O)c1CCOP(=O)(O)CP(=O)(O)OC[C@H]1O[C@@H](n3cnc4c([N+](=O)[O-])cccc43)[C@H](O)[C@@H]1O)C(=O)OC2`, the IC50 in the series with HT-29, in the series with HeLa and with K562 was more than 100000 nM in each case. For the same compound, the values for the Ki in series [1] and in series [2] were 749 nM and 876 nM, respectively.

Turning to `COc1c(C)c2c(c(O)c1CCOP(=O)(O)CP(=O)(O)OC[C@H]1O[C@@H](n3cnc4c(N)cccc43)[C@H](O)[C@@H]1O)C(=O)OC2`, in the series filed under Homo sapiens [4], the Ratio Ki was found to be 3. Further, the half-maximal inhibitory concentration (IC50) in the series with HT-29 is more than 100000 nM; with HeLa, 25000 nM; with K562 it was 2500 nM. Also, the Ki in series [1] is 165 nM; in series [2], 491 nM.

For `COc1c(C)c2c(c(O)c1CCOP(=O)(O)CP(=O)(O)OC[C@H]1O[C@@H](n3cnc4c(N)nc(COCc5ccccc5)nc43)[C@H](O)[C@@H]1O)C(=O)OC2`, the results for the IC50 in the series with HT-29, in the series on HeLa and in the series on K562 were more than 100000 nM, 11000 nM and 3000 nM, respectively. The Ki in series [1] was determined as 44 nM; in [2] it was 70 nM.

As to `COc1c(C)c2c(c(O)c1C/C=C(\C)CCC(=O)O)C(=O)OC2` [MYCOPHENOLIC ACID], in series [5], the Ki came to 10 nM.

`COc1c(C)c2c(c(O)c1CCOP(=O)(O)CP(=O)(O)OC[C@H]1O[C@@H](n3cnc4c(N)nc(-c5cccs5)nc43)[C@H](O)[C@@H]1O)C(=O)OC2`: the 50% inhibitory concentration (IC50) with HT-29 is 46000 nM; in the series with HeLa it was 12000 nM; in the series with K562, 1500 nM. Besides, the Ki stood at 56 nM in series [1] and 82 nM in [2].

Consider `COc1c(C)c2c(c(O)c1CCOP(=O)(O)CP(=O)(O)OC[C@H]1O[C@@H](n3cnc4c(N)nc(C(F)(F)F)nc43)[C@H](O)[C@@H]1O)C(=O)OC2`, for which the half-maximal inhibitory concentration (IC50) with HT-29 was found to be 8700 nM; in the series on HeLa, 4500 nM; with K562, 1000 nM. The values for the inhibition constant (Ki) in series [1] and in series [2] were 15 nM and 13 nM, respectively.

As for `COc1c(C)c2c(c(O)c1CCOP(=O)(O)CP(=O)(O)OC[C@H]1O[C@@H](n3cnc4c(N)nc(-c5ccncc5)nc43)[C@H](O)[C@@H]1O)C(=O)OC2`, the IC50 with HT-29 turned out to be 2000 nM; in the series on HeLa, 1000 nM; with K562, 400 nM. In addition, the inhibition constant (Ki) in series [1] amounted to 14 nM; in series [2], 0.6 nM. Moreover, in the series listed under Homo sapiens [6], the Ratio Ki came out at 23.

Regarding `COc1c(C)c2c(c(O)c1C/C=C(\C)CCC(=O)OC[C@@H]1O[C@H](n3cnc4c(N)ncnc43)[C@@H](O)[C@H]1O)C(=O)OC2`, the results for the IC50 in the series with HL-60, in the series with DU-145 and in the series with K562 were 2100 nM, 1500 nM and 1600 nM, respectively. The Stability entry with Plasma is listed as “Unstable”. The inhibition constant Ki in series [1] came out at 231 nM; in series [2], 2550 nM.
